According to patent US20250134667A1, “BIOABSORBABLE AND PHOTOCURABLE COMPOSITION, BIOABSORBABLE GUIDED TISSUE REGENERATION COMPOSITION, AND GRAFTING METHOD USING SAME” (priority 2022, published 2025):
Peptide text beside a SMILES is read from it.

Legend:
pNFκB = test: Western blot of pNFkB in Raw264.7 cells; format: cell-based, mouse; conditions: only the peptide, no LPS
Method: (§1) Raw264.7 cells were purchased from ATCC (American Type Culture Collection) and used in the experiment. Raw264.7 cells were cultured in a CO2 incubator at 37° C. supplied with 5% CO2 and 95% air using DMEM (Dulbecco's modified Eagle medium) medium supplemented with 10% FBS and 100 units/ml antibiotics (penicillin-streptomycin).
[…] After 8 hours, the treated cells were collected, protease inhibitor cocktail and phosphatase inhibitor cocktail were added to Radioimmunoprecipitation assay buffer (RIPA buffer solution, Thermo Fisher, 89900), and the cells were treated to lyse the cells. After centrifuging the cell lysate and collecting the supernatant, the concentration of the cell lysate was measured using a bicinchoninic acid assay (BCA assay, Thermo Fisher, 23227), and RIPA buffer solution was added thereto to prepare the cell lysate to a final concentration of 5 mg/mL. Then, it was mixed with a buffer solution including 1 M Tris-HCl (pH 6.8), 50% glycerol, and 10% SDS in a 4:1 ratio, and then sodium dodecyl sulfate-poly acrylamide gel electrophoresis (SDS-PAGE) was performed. […]

plkBa = test: Western blot of plkBa in Raw264.7 cells; format: cell-based, mouse; conditions: only the peptide, no LPS
Method: as §1
Raw264.7 cells were treated with 200 μM of the peptide having the amino acid sequence of SEQ ID NO: 1 for 30 minutes, and then treated with 1 μg/ml LPS (lipopolysaccharide, Merck, L3024). After 8 hours, the treated cells were collected, protease inhibitor cocktail and phosphatase inhibitor cocktail were added to Radioimmunoprecipitation assay buffer (RIPA buffer solution, Thermo Fisher, 89900), and the cells were treated to lyse the cells. After centrifuging the cell lysate and collecting the supernatant, the concentration of the cell lysate was measured using a bicinchoninic acid assay (BCA assay, Thermo Fisher, 23227), and RIPA buffer solution was added thereto to prepare the cell lysate to a final concentration of 5 mg/mL. Then, it was mixed with a buffer solution including 1 M Tris-HCl (pH 6.8), 50% glycerol, and 10% SDS in a 4:1 ratio, and then sodium dodecyl sulfate-poly acrylamide gel electrophoresis (SDS-PAGE) was performed. […]

Raw264.7 cells = test: Cell penetration ability at the cellular level (confocal microscopy); format: cell-based, mouse; conditions: 50, 100, 200 μM, 1 hour
Method: The N-terminus of the peptide having the amino acid of SEQ ID NO: 1 prepared in Example 1 was fluorescently labeled with Rhodamine B (Tokyo chemical industry Co., LTD., A5102). Raw264.7 cells were distributed 3×10^4 each into a 4-well chamber and cultured in DMEM medium for 24 hours to stabilize the cells. After 24 hours, fluorescently labeled peptide was added to the medium at concentrations of 50, 100, and 200 μM. After 1 hour of peptide treatment, a degree of penetration of the peptide into cells was observed using a confocal scanning fluorescence microscope […]. Cell nuclei were stained using 4′,6-diamidino-2-phenylindole (DAPI, Thermo Fisher, D1306). DIC represents the case observed under a general microscope, Nuceli represents the nucleus of a cell, Peptide represents the degree of penetration of a peptide bound to rhodamine B, and MERGE represents an image that overlaps images of DIC, Nuclei, and the penetrated peptide.

[1] = tested on: gingival tissue of a rabbit; test: Tissue penetration ability in animal tissue, rabbit; format: in vivo; conditions: living rabbit
Method: (§2) The amine group of the peptide having the amino acid of SEQ ID NO: 1 was labeled with fluorescence using Alexa Fluor™ 680 NHS Ester (Thermo Fisher, A20008). The fluorescent labeling method followed the method provided by the manufacturer. The fluorescently labeled peptide was dissolved in water for injection at a concentration of 250 mg/ml, and 10 μL was injected into the gingival sulcus of the premolars of an adult dog (beagle dog) and the anterior gingival sulcus of a rabbit. After 2 hours, to check the permeability of the peptide in the tissue, the animal was sacrificed, the gingival tissue was collected, and tissues were embedded using Tissue-Tek® O.C.T. Compound (Sakura Finetek, 4583). After sectioning the embedded tissue at 10 μm thickness, fluorescently labeled peptides were confirmed using a confocal scanning fluorescence microscope. The nuclei of tissue cells were stained using DAPI.

[2] = tested on: gingival tissue of an adult dog; test: Tissue penetration ability in animal tissue, adult dog; format: in vivo, adult dog (beagle dog)
Method: as §2

## C[C@@H](O)[C@H](NC(=O)[C@H](CO)NC(=O)[C@H](CS)NC(=O)[C@H](CCCCN)NC(=O)CN)C(=O)N[C@@H](CCCNC(=N)N)C(=O)NCC(=O)N[C@@H](CCCNC(=N)N)C(=O)N[C@@H](CCCCN)C(=O)N[C@@H](CO)C(=O)N[C@@H](CO)C(=O)N[C@@H](CCCNC(=N)N)C(=O)N[C@@H](CCCNC(=N)N)C(=O)N[C@@H](CCCCN)C(=O)N[C@@H](CCCCN)C(N)=O [SEQ ID NO: 1, GKCSTRGRKSSRRKK] (H-GKCSTRGRKSSRRKK-NH2; N-terminus and C-terminus assumed)
pNFκB
  expression of pNFκB, peptide only: no effect
plkBa
  expression of plkBa, peptide only: no effect
Raw264.7 cells
  concentration dependence of intracellular fluorescence: as the concentration of peptide increased, the intensity of fluorescence also increased
[1]
  penetration into gingival tissue (in words): penetrated
[2]
  penetration into gingival tissue (in words): penetrated
